From patent US8415271B2, “Biofertilizer formulation” (priority 2007, dated 2013)

Tested on: wheat
Test: Field grown wheat, harvest parameters
Assay type: in vivo, Triticum aestivum
Settings: seeds not coated
Description: Effect of the psychrorphilic biofertilizer was tested on field conditions on wheat cultivation in Victoria City, Temuco, Chile. Wheat seeds were disinfected and coated with the psychrophilic bacterial biofertilizer of the present invention as described in Example 3. Control seeds were disinfected and treated with water. A field of one hectare was directly sowed with the seeds using a random block experimental design with four repetitions per treatments. Further, total yield after the harvest was measured and the yield per unit area of the crop field was calculated.

O=P(=O)OP(=O)=O [Strain P2O5, P2O5]
Weight 1000 grains (50 Kg P2O5/ha): 33 ± 3 g
Yield (50 Kg P2O5/ha): 4.8 ± 0.5 ton/ha
Weight 1000 grains (100 Kg P2O5/ha): 37 ± 3 g
Yield (100 Kg P2O5/ha): 5.1 ± 0.3 ton/ha
Weight 1000 grains (150 Kg P2O5/ha): 35 ± 3 g
Yield (150 Kg P2O5/ha): 5.0 ± 0.4 ton/ha
